Laboratory results from article PMC6019134, “1,2,6-Thiadiazinones as Novel Narrow Spectrum Calcium/Calmodulin-Dependent Protein Kinase Kinase 2 (CaMKK2) Inhibitors” (Molecules : A Journal of Synthetic Chemistry and Natural …, 2018).

Key:
Test in all cases: DSF thermal shift, kinase panel
Assay type in all cases: binding
Conditions in all cases: 10 μM compound
[1] = biological target: T1, TTKA (Homo sapiens, UniProt P33981)
T1 construct: TEV-cleavable (cleaved yes); made in house; host or cells: E. coli
T1 sequence (P33981 1-857): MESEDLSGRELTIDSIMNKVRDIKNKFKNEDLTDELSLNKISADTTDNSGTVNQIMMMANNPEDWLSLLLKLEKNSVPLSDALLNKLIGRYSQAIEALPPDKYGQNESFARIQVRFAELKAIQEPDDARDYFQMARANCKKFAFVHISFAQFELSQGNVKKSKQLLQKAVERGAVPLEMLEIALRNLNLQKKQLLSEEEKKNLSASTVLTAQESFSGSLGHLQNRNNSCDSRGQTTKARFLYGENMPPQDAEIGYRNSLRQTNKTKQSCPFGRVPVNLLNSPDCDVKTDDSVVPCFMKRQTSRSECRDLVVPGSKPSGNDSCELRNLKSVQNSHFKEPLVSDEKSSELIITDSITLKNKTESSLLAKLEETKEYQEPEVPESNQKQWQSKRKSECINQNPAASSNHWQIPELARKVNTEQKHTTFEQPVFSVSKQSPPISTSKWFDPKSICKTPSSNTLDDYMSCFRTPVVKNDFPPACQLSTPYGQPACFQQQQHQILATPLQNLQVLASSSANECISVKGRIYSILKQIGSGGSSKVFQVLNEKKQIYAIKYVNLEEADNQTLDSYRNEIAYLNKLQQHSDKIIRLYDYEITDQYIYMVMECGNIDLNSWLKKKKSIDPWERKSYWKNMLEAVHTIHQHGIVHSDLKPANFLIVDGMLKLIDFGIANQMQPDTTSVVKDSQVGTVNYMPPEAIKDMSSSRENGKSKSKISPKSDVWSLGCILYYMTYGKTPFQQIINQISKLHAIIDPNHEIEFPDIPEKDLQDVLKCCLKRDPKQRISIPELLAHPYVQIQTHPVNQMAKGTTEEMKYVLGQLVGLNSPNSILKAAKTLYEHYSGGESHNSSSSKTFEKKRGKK
Protocol: (§1) The corresponding dianilino-TDZs (1–5) were tested on a panel of 46 protein kinases representing the major kinome branches at a concentration of 10 μM using a Differential Scanning Fluorimetry (DSF). Only analogues 1–3 induced a significant (>2 °C) thermal shift when incubated with a subset of the proteins (Table 1).
(§2) Kinase selectivity assay—A home-made kinase panel was generated for the following enzymes: AAK1, BMP2K, BMX, BRAF, CAMK1D, CAMK1G, CAMKK1, CAMKK2B, CDC42BPA, CDK2, CDKL1, CHEK2, CLK1, CSNK1G1, CSNK1G3, CSNK2A1, DYRK1A, DYRK2A, EPHA2, GAK, GSG2, MAPK1, MAP2K7, MAPK14B, MAPK3, PHKG2, PIM1, PLK1, PKMYT1, PRPF4B, RPS6KA1A, RPS6KA5A, RPS6KA6A, SLK, SRPK1, SRPK2, STK3, STK6, STK10, STK17A, STK24, STK38L, TRIB2, TTK, VRK1 and VRK2. Proteins were produced in E. coli, purified in a Ni-chelate column, followed by overnight digestion using TEV protease (made in house with an N-terminal 6xHis tag) and dialysis to remove imidazole. To clear samples of uncleaved proteins and the TEV protease, samples were loaded on new Ni-chelate columns. The flow through was collected, concentrated and loaded to a HiLoad Superdex 200 16/600 column (GE Healthcare, Chicago, IL, USA) for final polishing and buffer exchange.
(§3) Starting from 100 µM protein stocks, our kinase panel enzymes were diluted to 1 µM in buffer 100 mM K2HPO4 pH 7.5 containing 150 mM NaCl, 10% glycerol and 5X dye (Applied Biosystems catalogue 4461806). The protein/dye mixture was transferred to a 384-well PCR microplate having 20 µL per well. Compounds in DMSO at 10 mM concentration were added in 20 nL volume, using a liquid handling device setup with a pin head, to make 10 µM compound concentration in the assay plate.
(§4) Protein thermal shift data was measured in a qPCR instrument (Applied Biosystems QuantStudio 6) programmed to equilibrate the plate at 25 °C for 5 min followed by ramping the temperature to 95 °C at a rate of 0.05 °C/s. Data was processed using Protein Thermal shift software (Applied Biosystems) by fitting experimental curves to a Boltzmann function to calculate differential thermal shifts (dTm) referenced to protein/dye in 0.2% DMSO.

[2] = biological target: T2, SRPK1A (Homo sapiens, UniProt Q96SB4)
T2 construct: purchased in-house (home-made panel, SGC-style construct names)
T2 sequence (Q96SB4 whole entry): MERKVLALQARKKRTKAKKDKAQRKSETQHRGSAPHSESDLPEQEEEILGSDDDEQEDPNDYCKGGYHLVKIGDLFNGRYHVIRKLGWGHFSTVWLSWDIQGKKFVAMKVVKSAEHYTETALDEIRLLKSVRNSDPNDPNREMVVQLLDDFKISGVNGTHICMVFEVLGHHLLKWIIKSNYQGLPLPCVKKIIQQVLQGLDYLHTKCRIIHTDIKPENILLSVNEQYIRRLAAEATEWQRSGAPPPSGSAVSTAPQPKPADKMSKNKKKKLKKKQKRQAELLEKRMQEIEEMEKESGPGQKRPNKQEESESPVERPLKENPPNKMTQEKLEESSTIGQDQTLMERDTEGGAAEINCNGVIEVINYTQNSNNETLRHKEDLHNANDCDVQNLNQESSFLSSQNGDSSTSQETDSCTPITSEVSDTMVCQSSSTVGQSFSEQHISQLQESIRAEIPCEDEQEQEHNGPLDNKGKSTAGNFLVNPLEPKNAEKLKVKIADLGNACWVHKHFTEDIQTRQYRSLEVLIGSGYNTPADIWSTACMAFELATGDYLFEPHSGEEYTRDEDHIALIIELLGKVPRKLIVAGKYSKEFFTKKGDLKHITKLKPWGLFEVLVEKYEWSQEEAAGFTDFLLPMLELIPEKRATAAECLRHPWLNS
Protocol: as §1, §2, §3, §4

[3] = biological target: T3, DYRK1AA (Homo sapiens, UniProt Q13627)
T3 construct: purchased in-house (home-made panel, SGC-style construct names)
Protocol: as §1, §2, §3, §4

[4] = biological target: T4, STK38LA (Homo sapiens, UniProt Q9Y2H1)
T4 construct: TEV-cleavable (cleaved yes); made in house; host or cells: E. coli
T4 sequence (Q9Y2H1 whole entry): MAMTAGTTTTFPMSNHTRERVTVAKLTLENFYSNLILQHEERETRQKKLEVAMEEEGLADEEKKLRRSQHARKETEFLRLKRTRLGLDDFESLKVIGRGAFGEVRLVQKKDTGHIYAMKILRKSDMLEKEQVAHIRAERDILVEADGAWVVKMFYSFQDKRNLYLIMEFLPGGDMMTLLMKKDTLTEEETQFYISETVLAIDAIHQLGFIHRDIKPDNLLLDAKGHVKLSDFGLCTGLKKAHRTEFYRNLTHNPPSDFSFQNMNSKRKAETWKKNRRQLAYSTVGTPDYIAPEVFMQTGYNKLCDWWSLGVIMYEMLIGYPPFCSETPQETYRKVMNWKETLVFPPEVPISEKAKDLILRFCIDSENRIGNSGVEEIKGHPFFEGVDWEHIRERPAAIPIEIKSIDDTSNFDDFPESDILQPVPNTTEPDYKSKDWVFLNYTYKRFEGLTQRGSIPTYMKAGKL
Protocol: as §1, §2, §3, §4

[5] = biological target: T5, CSNK1G1 (Homo sapiens, UniProt Q9HCP0)
T5 construct: purchased in-house (home-made panel, SGC-style construct names)
T5 sequence (Q9HCP0 whole entry): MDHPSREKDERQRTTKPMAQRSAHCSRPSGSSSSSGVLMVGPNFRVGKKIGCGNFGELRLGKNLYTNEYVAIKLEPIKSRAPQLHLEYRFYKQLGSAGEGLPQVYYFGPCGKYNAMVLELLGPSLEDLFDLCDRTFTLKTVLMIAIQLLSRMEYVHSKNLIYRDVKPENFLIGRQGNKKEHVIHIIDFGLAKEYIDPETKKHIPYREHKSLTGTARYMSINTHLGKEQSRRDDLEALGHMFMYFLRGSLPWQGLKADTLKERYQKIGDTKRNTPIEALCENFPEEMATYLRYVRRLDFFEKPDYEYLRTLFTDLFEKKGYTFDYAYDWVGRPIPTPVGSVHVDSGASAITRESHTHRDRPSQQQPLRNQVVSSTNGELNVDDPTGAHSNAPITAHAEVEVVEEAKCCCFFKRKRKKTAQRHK
Protocol: as §1, §2, §3, §4

[6] = biological target: T6, PLK1A (Homo sapiens, UniProt P53350)
T6 construct: purchased in-house (home-made panel, SGC-style construct names)
T6 sequence (P53350 whole entry): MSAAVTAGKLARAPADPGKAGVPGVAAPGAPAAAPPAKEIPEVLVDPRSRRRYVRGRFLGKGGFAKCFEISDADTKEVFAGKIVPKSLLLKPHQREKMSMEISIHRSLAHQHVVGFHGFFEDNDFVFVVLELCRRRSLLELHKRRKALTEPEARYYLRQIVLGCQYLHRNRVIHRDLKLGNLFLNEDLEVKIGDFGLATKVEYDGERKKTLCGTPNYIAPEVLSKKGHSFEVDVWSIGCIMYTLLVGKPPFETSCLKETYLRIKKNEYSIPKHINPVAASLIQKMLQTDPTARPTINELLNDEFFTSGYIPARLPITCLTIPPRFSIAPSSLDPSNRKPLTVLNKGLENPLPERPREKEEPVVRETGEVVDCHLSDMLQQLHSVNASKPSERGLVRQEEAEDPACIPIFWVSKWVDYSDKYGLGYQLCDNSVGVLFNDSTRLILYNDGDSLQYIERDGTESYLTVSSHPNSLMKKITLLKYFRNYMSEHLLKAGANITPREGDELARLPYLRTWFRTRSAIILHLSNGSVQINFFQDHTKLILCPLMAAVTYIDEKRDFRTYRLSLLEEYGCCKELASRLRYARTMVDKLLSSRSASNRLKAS
Protocol: as §1, §2, §3, §4

[7] = biological target: T7, RPS6KA1A (Homo sapiens, UniProt Q15418)
T7 construct: purchased in-house (home-made panel, SGC-style construct names)
T7 sequence (Q15418 whole entry): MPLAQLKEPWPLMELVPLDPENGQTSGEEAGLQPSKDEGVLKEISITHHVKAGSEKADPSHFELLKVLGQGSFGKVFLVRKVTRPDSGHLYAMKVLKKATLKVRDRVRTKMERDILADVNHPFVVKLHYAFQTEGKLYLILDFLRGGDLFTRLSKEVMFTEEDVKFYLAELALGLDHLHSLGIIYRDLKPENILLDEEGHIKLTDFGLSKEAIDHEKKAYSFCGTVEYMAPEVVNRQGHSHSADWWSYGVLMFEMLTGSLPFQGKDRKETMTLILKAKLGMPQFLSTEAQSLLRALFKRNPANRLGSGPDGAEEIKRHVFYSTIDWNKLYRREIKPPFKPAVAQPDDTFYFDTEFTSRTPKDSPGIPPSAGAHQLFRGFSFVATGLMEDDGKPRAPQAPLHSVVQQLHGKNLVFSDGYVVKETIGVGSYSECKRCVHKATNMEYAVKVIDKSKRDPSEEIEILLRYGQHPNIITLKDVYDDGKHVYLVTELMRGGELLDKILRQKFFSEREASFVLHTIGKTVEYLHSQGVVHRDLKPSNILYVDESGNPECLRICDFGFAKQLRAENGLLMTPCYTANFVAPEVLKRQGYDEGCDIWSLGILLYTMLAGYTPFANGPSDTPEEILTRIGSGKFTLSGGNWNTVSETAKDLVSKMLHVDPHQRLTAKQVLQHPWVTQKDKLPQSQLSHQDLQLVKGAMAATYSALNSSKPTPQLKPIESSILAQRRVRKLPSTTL
Protocol: as §1, §2, §3, §4

[8] = biological target: T8, MAPK14B (Homo sapiens, UniProt Q16539)
T8 construct: purchased in-house (home-made panel, SGC-style construct names)
T8 sequence (Q16539 whole entry): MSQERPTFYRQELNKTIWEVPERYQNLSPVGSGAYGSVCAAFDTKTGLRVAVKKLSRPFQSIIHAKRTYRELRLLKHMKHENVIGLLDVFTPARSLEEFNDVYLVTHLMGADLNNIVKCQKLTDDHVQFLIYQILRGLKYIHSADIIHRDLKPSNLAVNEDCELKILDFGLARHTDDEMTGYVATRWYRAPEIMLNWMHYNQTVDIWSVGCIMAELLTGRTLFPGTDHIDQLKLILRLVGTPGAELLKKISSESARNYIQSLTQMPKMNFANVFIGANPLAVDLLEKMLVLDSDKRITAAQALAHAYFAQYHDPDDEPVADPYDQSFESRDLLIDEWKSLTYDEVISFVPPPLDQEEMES
Protocol: as §1, §2, §3, §4

[9] = biological target: T9, MAPK3A (Homo sapiens, UniProt P27361)
T9 construct: purchased in-house (home-made panel, SGC-style construct names)
T9 sequence (P27361 whole entry): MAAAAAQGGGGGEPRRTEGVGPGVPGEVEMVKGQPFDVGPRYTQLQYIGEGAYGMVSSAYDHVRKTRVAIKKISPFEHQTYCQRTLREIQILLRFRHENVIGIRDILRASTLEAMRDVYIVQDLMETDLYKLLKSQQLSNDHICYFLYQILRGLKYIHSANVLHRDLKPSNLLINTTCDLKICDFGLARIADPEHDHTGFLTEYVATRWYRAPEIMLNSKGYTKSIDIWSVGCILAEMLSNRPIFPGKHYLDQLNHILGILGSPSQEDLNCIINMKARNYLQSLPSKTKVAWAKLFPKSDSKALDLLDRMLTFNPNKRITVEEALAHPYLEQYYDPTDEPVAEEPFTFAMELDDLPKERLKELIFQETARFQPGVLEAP
Protocol: as §1, §2, §3, §4

[10] = biological target: T10, STK10A (Homo sapiens, UniProt O94804)
T10 construct: TEV-cleavable (cleaved yes); made in house; host or cells: E. coli
T10 sequence (O94804 whole entry): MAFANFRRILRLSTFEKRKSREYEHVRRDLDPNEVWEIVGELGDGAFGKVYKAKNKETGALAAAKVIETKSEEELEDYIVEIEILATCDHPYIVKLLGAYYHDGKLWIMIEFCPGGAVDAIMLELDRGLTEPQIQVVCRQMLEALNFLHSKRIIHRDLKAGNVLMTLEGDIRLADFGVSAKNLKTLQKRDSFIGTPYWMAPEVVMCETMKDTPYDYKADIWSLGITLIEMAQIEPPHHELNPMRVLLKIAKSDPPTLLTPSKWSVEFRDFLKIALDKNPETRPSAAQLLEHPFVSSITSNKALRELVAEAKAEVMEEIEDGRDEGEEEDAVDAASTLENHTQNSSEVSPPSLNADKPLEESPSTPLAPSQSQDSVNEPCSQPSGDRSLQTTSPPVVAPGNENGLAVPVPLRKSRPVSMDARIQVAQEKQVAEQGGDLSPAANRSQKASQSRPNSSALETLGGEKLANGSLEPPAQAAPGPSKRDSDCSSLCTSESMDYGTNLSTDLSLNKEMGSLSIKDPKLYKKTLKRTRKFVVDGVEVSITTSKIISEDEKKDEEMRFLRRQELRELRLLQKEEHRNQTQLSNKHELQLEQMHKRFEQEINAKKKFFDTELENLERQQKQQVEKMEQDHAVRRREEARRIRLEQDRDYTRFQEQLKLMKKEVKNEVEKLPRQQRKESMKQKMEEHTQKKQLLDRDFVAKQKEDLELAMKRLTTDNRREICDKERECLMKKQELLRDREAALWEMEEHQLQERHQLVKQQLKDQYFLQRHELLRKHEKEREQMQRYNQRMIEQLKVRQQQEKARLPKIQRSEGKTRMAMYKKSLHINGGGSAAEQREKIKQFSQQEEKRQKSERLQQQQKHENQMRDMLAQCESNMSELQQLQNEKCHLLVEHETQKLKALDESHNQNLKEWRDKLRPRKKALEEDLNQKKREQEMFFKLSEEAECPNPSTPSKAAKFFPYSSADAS
Protocol: as §1, §2, §3, §4

[11] = biological target: T11, PKMYT1A (Homo sapiens, UniProt Q99640)
T11 construct: purchased in-house (home-made panel, SGC-style construct names)
T11 sequence (Q99640 1-499): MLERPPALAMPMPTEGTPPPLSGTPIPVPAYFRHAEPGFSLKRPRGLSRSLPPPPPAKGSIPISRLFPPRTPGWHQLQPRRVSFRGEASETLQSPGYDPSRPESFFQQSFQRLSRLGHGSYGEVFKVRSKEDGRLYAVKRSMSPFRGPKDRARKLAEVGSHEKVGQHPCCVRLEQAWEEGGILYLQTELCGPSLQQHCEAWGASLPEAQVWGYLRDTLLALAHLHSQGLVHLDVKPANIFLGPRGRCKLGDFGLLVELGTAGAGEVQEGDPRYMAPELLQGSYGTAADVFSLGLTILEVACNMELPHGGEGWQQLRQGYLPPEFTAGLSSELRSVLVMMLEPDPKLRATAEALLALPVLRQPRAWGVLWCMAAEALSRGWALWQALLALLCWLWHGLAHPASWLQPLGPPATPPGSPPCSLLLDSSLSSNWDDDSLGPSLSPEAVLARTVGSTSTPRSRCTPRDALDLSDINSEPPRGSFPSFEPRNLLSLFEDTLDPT
Protocol: as §1, §2, §3, §4

Structure (SMILES) | ΔTm at 10 µM [1] [°C] | ΔTm at 10 µM [2] [°C] | ΔTm at 10 µM [3] [°C] | ΔTm at 10 µM [4] [°C] | ΔTm at 10 µM [5] [°C] | ΔTm at 10 µM [6] [°C] | ΔTm at 10 µM [7] [°C] | ΔTm at 10 µM [8] [°C] | ΔTm at 10 µM [9] [°C] | ΔTm at 10 µM [10] [°C] | ΔTm at 10 µM [11] [°C]
Cc1ccc(Nc2nsnc(Nc3ccc4c(c3)CS(=O)(=O)C4)c2=O)cc1O [Compound 3, 3-[(2,2-Dioxido-1,3-dihydrobenzo[c]thiophen-5-yl)amino]-5-[(3-hydroxy-4-methylphenyl)amino]-4H-1,2,6-thiadiazin-4-one] | 2.1 | 0 | -0.1 | 0.8 | -0.7 | 1.1 | -0.4 | 1 | 0.4 | 2.2 | 1.2
CNC(=O)c1ccccc1Nc1nsnc(Nc2ccc(N3CCOCC3)cc2)c1=O [Compound 5, N-Methyl-2-({5-[(4-morpholinophenyl)amino]-4-oxo-4H-1,2,6-thiadiazin-3-yl}amino)benzamide] | 0.1 | 0 | -0.8 | 0.3 | 0 | 0.2 | -0.4 | -0.3 | 0.1 | -0.4 | -0.8
CNC(=O)c1ccccc1Nc1nsnc(Nc2cccc(CS(C)(=O)=O)c2)c1=O [Compound 4, N-Methyl-2-([5-({3-[(methylsulfonyl)methyl]phenyl}amino)-4-oxo-4H-1,2,6-thiadiazin-3-yl]-amino}-benzamide] | 0.3 | 0 | -0.5 | 0.4 | 0.3 | 0.2 | -0.4 | -0.2 | 0.1 | 0.2 | -0.3
Cc1ccc(Nc2nsnc(Nc3cccc(C(N)=O)c3)c2=O)cc1O [Compound 1, 3-({5-[(3-Hydroxy-4-methylphenyl)amino]-4-oxo-4H-1,2,6-thiadiazin-3-yl}amino)benzamide] | 0.8 | 0 | -0.6 | 0.2 | -0.6 | 0.3 | -0.6 | 0 | 0.1 | 0.5 | 0
Cc1ccc(Nc2nsnc(Nc3ccc(C(N)=O)cc3)c2=O)cc1O [Compound 2, 4-({5-[(3-Hydroxy-4-methylphenyl)amino]-4-oxo-4H-1,2,6-thiadiazin-3-yl}amino)benzamide] | 2.6 | 1.8 | 0.9 | 0.4 | -1 | -0.2 | 1.3 | 0.6 | 1.2 | 0.9 | 3
